Assay results published in patent publication US9499550B2 (BRISTOL-MYERS SQUIBB COMPANY, priority 2012, dated 2016).
pEC50: −log10 of the molar value.

Columns and labels:
[1] = tested on: HCV genotype 1a (H77 strain) replicon in HUH-7 cells; test: HCV replicon luciferase reporter assay, genotype 1a; type: cell-based; conditions: Hepatitis C virus, Huh-7, 72 h, HCV genotype 1a replicon luciferase assay, 3 days incubation, range class, read-out: LE_1a (EC50, range)
Summary of the method: (§1)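 Replicon inhibition for both genotypes was measured as Renilla luciferase signal (EnduRen, 7.5 μM final, 2 h) after 3-day, 37° C exposure of replicon-bearing HUH-7 cells in 4% FCS DMEM, 0.5% DMSO. The 1b construct carries S1179I; the 1a H77 construct carries P1496L and S2204I. Twenty-point, 3-fold dilutions were fitted four-parametrically for EC50, and CC50 was taken from multiplexed Cell Titer-Blue.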

[2] = tested on: HCV genotype 1b (Con1) replicon in HUH-7 cells; test: HCV replicon luciferase reporter assay, genotype 1b; type: cell-based; conditions: Hepatitis C virus, Huh-7, 72 h, HCV genotype 1b replicon luciferase assay, 3 days incubation, range class, read-out: LE_1b (EC50, range)
Summary of the method: as §1

| SMILES | pEC50 [1] | pEC50 [2] |
| --- | --- | --- |
| CC(C)Oc1cc2c(Cl)cccc2c(O[C@@H]2C[C@H]3C(=O)N[C@]4(C(=O)NS(=O)(=O)C5(C)CC5)C[C@H]4/C=C\CC[C@@H](C)C[C@@H](C)[C@H](NC(=O)OC(C)(C)C(F)(F)F)C(=O)N3C2)n1 [Compound 1102, 1,1,1-trifluoro-2-methylpropan-2-yl((2R,6S,7R,9R,13aS,14aR,16aS,Z)-2-((5-chloro-3-isopropoxyisoquinolin-1-yl)oxy)-7,9-dimethyl-14a-(((1-methylcyclopropyl)sulfonyl)carbamoyl)-5,16-dioxo-1,2,3,5,6,7,8,9,10,11,13a,14,14a,15,16,16a-hexadecahydrocyclopropa[e]pyrrolo[1,2-a][1,4]diazacyclopentadecin-6-yl)carbamate] | > 8.26 | > 8.26 |
| CC(C)Oc1cc2c(Cl)cccc2c(O[C@@H]2C[C@H]3C(=O)N[C@]4(C(=O)NS(=O)(=O)C5(C)CC5)C[C@H]4/C=C\CC[C@H](C)C[C@@H](C)[C@H](NC(=O)OC(C)(C)C(C)(F)F)C(=O)N3C2)n1 [Compound 1103, 3,3-difluoro-2-methylbutan-2-yl((2R,6S,7R,9S,13aS,14aR,16aS,Z)-2-((5-chloro-3-isopropoxyisoquinolin-1-yl)oxy)-7,9-dimethyl-14a-(((1-methylcyclopropyl)sulfonyl)carbamoyl)-5,16-dioxo-1,2,3,5,6,7,8,9,10,11,13a,14,14a,15,16,16a-hexadecahydrocyclopropa[e]pyrrolo[1,2-a][1,4]diazacyclopentadecin-6-yl)carbamate] | 6.99 to 8.32 | > 8.26 |
| CC(C)Oc1cc2c(Cl)cccc2c(O[C@@H]2C[C@H]3C(=O)N[C@]4(C(=O)NS(=O)(=O)C5(C)CC5)C[C@H]4/C=C\CC[C@@H](C)C[C@@H](C)[C@H](NC(=O)OC(C)(C)C(C)(F)F)C(=O)N3C2)n1 [Compound 1104, 3,3-difluoro-2-methylbutan-2-yl((2R,6S,7R,9R,13aS,14aR,16aS,Z)-2-((5-chloro-3-isopropoxyisoquinolin-1-yl)oxy)-7,9-dimethyl-14a-(((1-methylcyclopropyl)sulfonyl)carbamoyl)-5,16-dioxo-1,2,3,5,6,7,8,9,10,11,13a,14,14a,15,16,16a-hexadecahydrocyclopropa[e]pyrrolo[1,2-a][1,4]diazacyclopentadecin-6-yl)carbamate] | > 8.26 | > 8.26 |
| CC(C)Oc1cc2c(Cl)cccc2c(O[C@@H]2C[C@H]3C(=O)N[C@]4(C(=O)NS(=O)(=O)C5CC5)C[C@H]4/C=C\CC[C@H](C)C[C@@H](C)[C@H](NC(=O)OC(C)(C)C(C)(F)F)C(=O)N3C2)n1 [Compound 1105, 3,3-difluoro-2-methylbutan-2-yl((2R,6S,7R,9S,13aS,14aR,16aS,Z)-2-((5-chloro-3-isopropoxyisoquinolin-1-yl)oxy)-14a-((cyclopropylsulfonyl)carbamoyl)-7,9-dimethyl-5,16-dioxo-1,2,3,5,6,7,8,9,10,11,13a,14,14a,15,16,16a-hexadecahydrocyclopropa[e]pyrrolo[1,2-a][1,4]diazacyclopentadecin-6-yl)carbamate] | > 8.26 | > 8.26 |
| CC(C)Oc1cc2c(Cl)cccc2c(O[C@@H]2C[C@H]3C(=O)N[C@]4(C(=O)NS(=O)(=O)C5CC5)C[C@H]4/C=C\CC[C@@H](C)C[C@@H](C)[C@H](NC(=O)OC(C)(C)C(C)(F)F)C(=O)N3C2)n1 [Compound 1106, 3,3-difluoro-2-methylbutan-2-yl((2R,6S,7R,9R,13aS,14aR,16aS,Z)-2-((5-chloro-3-isopropoxyisoquinolin-1-yl)oxy)-14a-((cyclopropylsulfonyl)carbamoyl)-7,9-dimethyl-5,16-dioxo-1,2,3,5,6,7,8,9,10,11,13a,14,14a,15,16,16a-hexadecahydrocyclopropa[e]pyrrolo[1,2-a][1,4]diazacyclopentadecin-6-yl)carbamate] | > 8.26 | > 8.26 |
| C[C@H]1CC/C=C\[C@@H]2C[C@@]2(C(=O)NS(=O)(=O)C2(C)CC2)NC(=O)[C@@H]2C[C@@H](Oc3nc(OCC(F)F)cc4c(Cl)cccc34)CN2C(=O)[C@@H](NC(=O)O[C@H](C)C(F)(F)F)[C@H](C)C1 [Compound 1107, (R)-1,1,1-trifluoropropan-2-yl ((2R,6S,7R,9S,13aS,14aR,16aS,Z)-2-((5-chloro-3-(2,2-difluoroethoxyl)isoquinolin-1-yl)oxy)-7,9-dimethyl-14a-(((1-methylcyclopropyl)sulfonyl)carbamoyl)-5,16-dioxo-1,2,3,5,6,7,8,9,10,11,13a,14,14a,15,16,16a-hexadecahydrocyclopropa[e]pyrrolo[1,2-a][1,4]diazacyclopentadecin-6-yl)carbamate] | 6.99 to 8.32 | > 8.26 |
| C[C@@H]1CC/C=C\[C@@H]2C[C@@]2(C(=O)NS(=O)(=O)C2(C)CC2)NC(=O)[C@@H]2C[C@@H](Oc3nc(OCC(F)F)cc4c(Cl)cccc34)CN2C(=O)[C@@H](NC(=O)O[C@H](C)C(F)(F)F)[C@H](C)C1 [Compound 1108, (R)-1,1,1-trifluoropropan-2-yl ((2R,6S,7R,9R,13aS,14aR,16aS,Z)-2-((5-chloro-3-(2,2-difluoroethoxyl)isoquinolin-1-yl)oxy)-7,9-dimethyl-14a-(((1-methylcyclopropyl)sulfonyl)carbamoyl)-5,16-dioxo-1,2,3,5,6,7,8,9,10,11,13a,14,14a,15,16,16a-hexadecahydrocyclopropa[e]pyrrolo[1,2-a][1,4]diazacyclopentadecin-6-yl)carbamate] | > 8.26 | > 8.26 |
| C[C@@H]1CC/C=C\[C@@H]2C[C@@]2(C(=O)NS(=O)(=O)C2(C)CC2)NC(=O)[C@@H]2C[C@@H](Oc3nc(OCC(F)F)cc4c(Cl)cccc34)CN2C(=O)[C@@H](NC(=O)OC(C)(C)C(C)(F)F)[C@H](C)C1 [Compound 1110, 3,3-difluoro-2-methylbutan-2-yl((2R,6S,7R,9R,13aS,14aR,16aS,Z)-2-((5-chloro-3-(2,2-difluoroethoxyl)isoquinolin-1-yl)oxy)-7,9-dimethyl-14a-(((1-methylcyclopropyl)sulfonyl)carbamoyl)-5,16-dioxo-1,2,3,5,6,7,8,9,10,11,13a,14,14a,15,16,16a-hexadecahydrocyclopropa[e]pyrrolo[1,2-a][1,4]diazacyclopentadecin-6-yl)carbamate] | > 8.26 | > 8.26 |
| C[C@H]1CC/C=C\[C@@H]2C[C@@]2(C(=O)NS(=O)(=O)C2CC2)NC(=O)[C@@H]2C[C@@H](Oc3nc(OCC(F)F)cc4c(Cl)cccc34)CN2C(=O)[C@@H](NC(=O)OC(C)(C)C(C)(F)F)[C@H](C)C1 [Compound 1111, 3,3-difluoro-2-methylbutan-2-yl((2R,6S,7R,9S,13aS,14aR,16aS,Z)-2-((5-chloro-3-(2,2-difluoroethoxyl)isoquinolin-1-yl)oxy)-14a-((cyclopropylsulfonyl)carbamoyl)-7,9-dimethyl-5,16-dioxo-1,2,3,5,6,7,8,9,10,11,13a,14,14a,15,16,16a-hexadecahydrocyclopropa[e]pyrrolo[1,2-a][1,4]diazacyclopentadecin-6-yl)carbamate] | > 8.26 | > 8.26 |
| C[C@@H]1CC/C=C\[C@@H]2C[C@@]2(C(=O)NS(=O)(=O)C2CC2)NC(=O)[C@@H]2C[C@@H](Oc3nc(OCC(F)F)cc4c(Cl)cccc34)CN2C(=O)[C@@H](NC(=O)OC(C)(C)C(C)(F)F)[C@H](C)C1 [Compound 1112, 3,3-difluoro-2-methylbutan-2-yl((2R,6S,7R,9R,13aS,14aR,16aS,Z)-2-((5-chloro-3-(2,2-difluoroethoxyl)isoquinolin-1-yl)oxy)-14a-((cyclopropylsulfonyl)carbamoyl)-7,9-dimethyl-5,16-dioxo-1,2,3,5,6,7,8,9,10,11,13a,14,14a,15,16,16a-hexadecahydrocyclopropa[e]pyrrolo[1,2-a][1,4]diazacyclopentadecin-6-yl)carbamate] | > 8.26 | > 8.26 |
| COCCOc1cc2c(Cl)cccc2c(O[C@@H]2C[C@H]3C(=O)N[C@]4(C(=O)NS(=O)(=O)C5(C)CC5)C[C@H]4/C=C\CC[C@H](C)C[C@@H](C)[C@H](NC(=O)OC(C)(C)C(F)(F)F)C(=O)N3C2)n1 [Compound 1113, 1,1,1-trifluoro-2-methylpropan-2-yl((2R,6S,7R,9S,13aS,14aR,16aS,Z)-2-((5-chloro-3-(2-methoxyethoxyl)isoquinolin-1-yl)oxy)-7,9-dimethyl-14a-(((1-methylcyclopropyl)sulfonyl)carbamoyl)-5,16-dioxo-1,2,3,5,6,7,8,9,10,11,13a,14,14a,15,16,16a-hexadecahydrocyclopropa[e]pyrrolo[1,2-a][1,4]diazacyclopentadecin-6-yl)carbamate] | > 8.26 | > 8.26 |
| COCCOc1cc2c(Cl)cccc2c(O[C@@H]2C[C@H]3C(=O)N[C@]4(C(=O)NS(=O)(=O)C5(C)CC5)C[C@H]4/C=C\CC[C@H](C)C[C@@H](C)[C@H](NC(=O)OC(C)(C)C(C)(F)F)C(=O)N3C2)n1 [Compound 1115, 3,3-difluoro-2-methylbutan-2-yl((2R,6S,7R,9S,13aS,14aR,16aS,Z)-2-((5-chloro-3-(2-methoxyethoxyl)isoquinolin-1-yl)oxy)-7,9-dimethyl-14a-(((1-methylcyclopropyl)sulfonyl)carbamoyl)-5,16-dioxo-1,2,3,5,6,7,8,9,10,11,13a,14,14a,15,16,16a-hexadecahydrocyclopropa[e]pyrrolo[1,2-a][1,4]diazacyclopentadecin-6-yl)carbamate] | > 8.26 | > 8.26 |
